Experimental data from patent US10597388B2, “Pyridazinone herbicides” (FMC CORPORATION, priority 2014, dated 2020).

What was measured:
Experiment in all cases: Test D controlled growth environment herbicide test, pre- and postemergence
Type in all cases: in vivo
[1] = system: foxtail, green (green foxtail, Setaria viridis)
Summary of the method: (§1)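 Pre-emergence: seeds sown in silt loam soil were sprayed with compound in a non-phytotoxic solvent mix containing surfactant. Post-emergence: plants at 2 to 18 cm (1- to 4-leaf stage) in peat moss/vermiculite medium got the same formulation. Visual 0–100 rating versus controls after 14 to 21 d.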

[2] = system: lambsquarters (Chenopodium album)
Summary of the method: as §1

[3] = system: bluegrass (annual bluegrass, Poa annua)
Summary of the method: as §1

[4] = system: mustard, wild (wild mustard, Sinapis arvensis)
Summary of the method: as §1

[5] = system: bromegrass, downy (downy bromegrass, Bromus tectorum)
Summary of the method: as §1

kochia (Kochia scoparia) = system: kochia (Kochia scoparia)
Summary of the method: as §1

[6] = system: barley, winter (winter barley, Hordeum vulgare)
Summary of the method: as §1

[7] = system: chamomile (scentless chamomile, Matricaria inodora)
Summary of the method: as §1

[8] = system: galium (catchweed bedstraw, Galium aparine)
Summary of the method: as §1

[9] = system: canarygrass (Phalaris minor)
Summary of the method: as §1

[10] = system: barley, spring (spring barley, Hordeum vulgare)
Summary of the method: as §1

[11] = system: speedwell (bird's-eye speedwell, Veronica persica)
Summary of the method: as §1

[12] = system: oat, wild (wild oat, Avena fatua)
Summary of the method: as §1

[13] = Postemergence, 31 g ai/ha, scale 0 to 100 (0 no effect, 100 complete control)
[14] = Postemergence, 125 g ai/ha, visual rating on scale 0 (no effect) to 100 (complete control), 14 to 21 d
[15] = Postemergence, 250 g ai/ha, scale 0 to 100 (0 no effect, 100 complete control)
[16] = Preemergence, 125 g ai/ha, scale 0 to 100 (0 no effect, 100 complete control)
[17] = Preemergence, 250 g ai/ha, scale 0 to 100 (0 no effect, 100 complete control)
[18] = postemergence, 62 g ai/ha, scale 0 to 100, 0 no effect, 100 complete control
[19] = Preemergence, 62 g ai/ha, scale 0 to 100 (0 no effect, 100 complete control)

Cc1cc(C)c2sc(C)c(-c3c(OC(=O)OCCCl)c(C)nn(C)c3=O)c2c1 [Compound 85]
Foxtail, Green plant response rating [1, 13]: 75
Plant response rating, Foxtail, Green [1, 14]: 85
Plant response rating, Foxtail, Green [1, 15]: 85
Plant response rating (scale of 0 to 100), Foxtail, Green ([1]; Preemergence, 31 g ai/ha): 25
Plant response rating (scale of 0 to 100), Foxtail, Green ([1]; Preemergence, 62 g ai/ha): 55
Plant response rating, Foxtail, Green [1, 16]: 100
Plant response rating, Foxtail, Green [1, 17]: 100
Plant response rating, Foxtail, Green [1, 18]: 80
Lambsquarters plant response rating [2, 13]: 80
Plant response rating, Lambsquarters [2, 14]: 95
Plant response rating, Lambsquarters [2, 15]: 95
Plant response rating (scale of 0 to 100), Lambsquarters ([2]; Preemergence, 31 g ai/ha): 25
Plant response rating (scale of 0 to 100), Lambsquarters ([2]; Preemergence, 62 g ai/ha): 100
Plant response rating, Lambsquarters [2, 16]: 100
Plant response rating, Lambsquarters [2, 17]: 100
Plant response rating, Lambsquarters [2, 18]: 85
Bluegrass plant response rating [3, 13]: 10
Plant response rating, Bluegrass [3, 14]: 25
Plant response rating, Bluegrass [3, 15]: 40
Plant response rating (scale of 0 to 100), Bluegrass ([3]; Preemergence, 31 g ai/ha): 40
Plant response rating, Bluegrass [3, 19]: 60
Plant response rating, Bluegrass [3, 16]: 65
Plant response rating, Bluegrass [3, 17]: 75
Plant response rating, Bluegrass [3, 18]: 20
Mustard, Wild plant response rating [4, 13]: 10
Plant response rating, Mustard, Wild [4, 14]: 30
Plant response rating, Mustard, Wild [4, 15]: 80
Plant response rating (scale of 0 to 100), Mustard, Wild ([4]; Preemergence, 31 g ai/ha): 25
Plant response rating (scale of 0 to 100), Mustard, Wild ([4]; Preemergence, 62 g ai/ha): 25
Plant response rating, Mustard, Wild [4, 16]: 35
Plant response rating, Mustard, Wild [4, 17]: 40
Plant response rating, Mustard, Wild [4, 18]: 25
Bromegrass, Downy plant response rating [5, 13]: 30
Plant response rating, Bromegrass, Downy [5, 14]: 35
Plant response rating, Bromegrass, Downy [5, 15]: 60
Plant response rating (scale of 0 to 100), Bromegrass, Downy ([5]; Preemergence, 31 g ai/ha): 15
Plant response rating, Bromegrass, Downy [5, 19]: 35
Plant response rating, Bromegrass, Downy [5, 16]: 55
Plant response rating, Bromegrass, Downy [5, 17]: 80
Plant response rating, Bromegrass, Downy [5, 18]: 30
Kochia plant response rating (kochia (Kochia scoparia); [13]): 40
Plant response rating, Kochia (kochia (Kochia scoparia); [14]): 70
Plant response rating, Kochia (kochia (Kochia scoparia); [15]): 75
Plant response rating (scale of 0 to 100), Kochia (kochia (Kochia scoparia); Preemergence, 31 g ai/ha): 5
Plant response rating (scale of 0 to 100), Kochia (kochia (Kochia scoparia); Preemergence, 62 g ai/ha): 10
Plant response rating, Kochia (kochia (Kochia scoparia); [16]): 10
Plant response rating, Kochia (kochia (Kochia scoparia); [17]): 45
Plant response rating, Kochia (kochia (Kochia scoparia); [18]): 65
Barley, Winter plant response rating [6, 13]: 0
Plant response rating, Barley, Winter [6, 14]: 5
Plant response rating, Barley, Winter [6, 15]: 10
Plant response rating (scale of 0 to 100), Barley, Winter ([6]; Preemergence, 31 g ai/ha): 0
Plant response rating, Barley, Winter [6, 19]: 0
Plant response rating, Barley, Winter [6, 16]: 0
Plant response rating, Barley, Winter [6, 17]: 15
Plant response rating, Barley, Winter [6, 18]: 0
Chamomile plant response rating [7, 13]: 75
Plant response rating, Chamomile [7, 14]: 90
Plant response rating, Chamomile [7, 15]: 85
Plant response rating, Chamomile [7, 18]: 75
Galium plant response rating [8, 13]: 85
Plant response rating, Galium [8, 14]: 100
Plant response rating, Galium [8, 15]: 100
Plant response rating (scale of 0 to 100), Galium ([8]; Preemergence, 31 g ai/ha): 30
Plant response rating (scale of 0 to 100), Galium ([8]; Preemergence, 62 g ai/ha): 70
Plant response rating, Galium [8, 16]: 75
Plant response rating, Galium [8, 17]: 100
Plant response rating, Galium [8, 18]: 95
Canarygrass plant response rating [9, 13]: 75
Plant response rating, Canarygrass [9, 14]: 85
Plant response rating, Canarygrass [9, 15]: 90
Plant response rating (scale of 0 to 100), Canarygrass ([9]; Preemergence, 31 g ai/ha): 80
Plant response rating (scale of 0 to 100), Canarygrass ([9]; Preemergence, 62 g ai/ha): 90
Plant response rating, Canarygrass [9, 16]: 90
Plant response rating, Canarygrass [9, 17]: 95
Plant response rating, Canarygrass [9, 18]: 85
Barley, Spring plant response rating [10, 13]: 0
Plant response rating, Barley, Spring [10, 14]: 15
Plant response rating, Barley, Spring [10, 15]: 20
Plant response rating (scale of 0 to 100), Barley, Spring ([10]; Preemergence, 31 g ai/ha): 0
Plant response rating, Barley, Spring [10, 19]: 0
Plant response rating, Barley, Spring [10, 16]: 0
Plant response rating, Barley, Spring [10, 17]: 5
Plant response rating, Barley, Spring [10, 18]: 0
Speedwell plant response rating [11, 13]: 35
Plant response rating, Speedwell [11, 14]: 80
Plant response rating, Speedwell [11, 15]: 100
Plant response rating (scale of 0 to 100), Speedwell ([11]; Preemergence, 31 g ai/ha): 50
Plant response rating (scale of 0 to 100), Speedwell ([11]; Preemergence, 62 g ai/ha): 90
Plant response rating, Speedwell [11, 16]: 100
Plant response rating, Speedwell [11, 17]: 100
Plant response rating, Speedwell [11, 18]: 70
Oat, Wild plant response rating [12, 13]: 75
Plant response rating, Oat, Wild [12, 14]: 95
Plant response rating, Oat, Wild [12, 15]: 100
Plant response rating (scale of 0 to 100), Oat, Wild ([12]; Preemergence, 31 g ai/ha): 75
Plant response rating (scale of 0 to 100), Oat, Wild ([12]; Preemergence, 62 g ai/ha): 75
Plant response rating, Oat, Wild [12, 16]: 85
Plant response rating, Oat, Wild [12, 17]: 90
Plant response rating, Oat, Wild [12, 18]: 85
